Test [1] concerns Karpas299 cells. In words: Suppression of Karpas299 cell proliferation (CellTiter-Glo). Type of test: cell-based. Particulars: Homo sapiens, KARPAS-299, 72 h; 3 days incubation; read-out: Inhibition activity on Karpas299 cells IC50. How it is done:
(§1) As the amount of ATP can indicate the number of living cells directly, the living cells in culture are able to be quantified by determining the ATP level. In our experiment, we use a living-cell testing kit to quantify the living cells, which utilizes UltraGlow luciferase to generate a stable glow signal in the presence of ATP which is produced by metabolism of living cells, such as respiration. Specifically, a reagent CellTiter-Glo™ was added into cell culture media, and then the luminescent intensity was determined to measure proliferation of cells, as the luminescent intensity is in direct proportion to the ATP level which correlates positively to the number of living cells. The test plate was tested with the Envision (PE).
Cell media: RPMI-1640 medium, fetal calf serum (FCS), antibiotics (Penicillin-Streptomycin)
Assay reagent: Cell Viability Assay Kit CellTiter-Glo
(§2) Others: a 96-well plate, a 384-well plate, DMSO
(§3) Step 3.1 Culturing test cells
Karpas 299 cells were plated into a black 384-well plate, with 2500 cells in 45 μl cell suspension per well. The plate was placed in a carbon dioxide incubator overnight.
(§4) Step 3.2 Preparation of the compounds to be tested
Each compound to be tested was dissolved in DMSO at 10 mM as the stock solution, which was left in a nitrogen-gas tank for storage.
After dilution of 10 μL stock solution (10 mM) into 2.5 mM as a starting working solution, 10 concentrations of the working solutions from 5 μM to 0.25 nM were obtained in duplicate by further dilution in 3-fold series with ECHO.
Step 3.3 Mixing the compound with the test cells
To each well of a new 96-well plate were added 49 μl medium and 1 μl of the compounds to be tested at individual working concentrations (10 concentrations in total). After oscillation,
5 μl of mixture in each well of the 96-well plate was transferred into corresponding wells in the 384-well plate in the step 3.1. The 384-well plate was incubated in the carbon dioxide incubator for 3 days.
To each well of the 384-well plate was added […] reagent Promega CellTiter-Glo. and incubated at room temperature for 10 minutes to stabilize the luminescence signal. The results were read with the PerkinElmer Envision Multi-mode Plate Reader.
On the technique in general: ATP-based viability assays read luminescence as a measure of living cells.

Test [2] has as its system Ba/F3 EML4-ALK cells. The test can be described thus: Suppression of Ba/F3 EML4-ALK cell proliferation (CellTiter-Glo). Conditions: Ba/F3 EML4-ALK, 72 h; 3 days incubation. Type of test: cell-based.
Text: Cell media: RPMI-1640 medium, fetal calf serum (FCS), antibiotics (Penicillin-Streptomycin), IL-3, puromycin
Cell line: Ba/F3 EML4-ALK
Assay reagent: Cell Viability Assay Kit Celliter-Glo
as §2
as §1, with “in medium” for “in culture”, “a cell viability assay” for “a living-cell testing”, “was assayed by” for “was tested with”
as §3
Ba/F3 EML4-ALK cells were planted into a 384-well plate, with almost 300 cells per well. The plate was placed in a carbon dioxide incubator overnight.
as §4
10 concentrations of the working solutions were obtained in duplicate by dilution in 3-fold series with BRAVO.
Step 3.3 Mixing the compound to be tested with the test cells
The compounds to be tested at individual working concentrations were transferred into corresponding wells in the 384-well plate in the step 3.1, with 5 μM as the initial working concentration, and then the 384-well plate was incubated in the carbon dioxide incubator for 3 days.
To each well of the 384-well plate was added the reagent Promega CellTiter-Glo, and incubated at room temperature for 10 minutes to stabilize the luminescence signal. The results were read by the PerkinElmer Envision Multi-mode Plate Reader.

Test [3] has as its target ALK (Homo sapiens (Human), UniProt Q9UM73). The test can be described thus: Inhibition of ALK kinase activity (Caliper mobility shift). Type of test: biochemical. How it is done: (§5) Inhibition of Compound I Against ALK Kinase Activity
(§6) • I. Preparation of 1× kinase buffer and stop buffer
(§7) 1) 1× Kinase Buffer • 50 mM HEPES. pH 7.5 • 0.0015% Brij-35 • 10 mM MgCl2 • 2 mM DTT • 2) stop buffer • 100 mM HEPES, pH 7.5 • 0.015% Brij-35 • 0.2% Coating Reagent #3 • 50 mM EDTA
(§8) 2. Prepare a Compound Solution to be Tested • Step 2.1 Dilute the compound to 50× of the final desired highest inhibitor concentration in reaction by 100% DMSO. Transfer 100 μl of this compound dilution to a well in a 96-well plate. For example, if desired highest inhibitor concentration is 1 μM, then prepare 50 μM of compound DMSO solution in this step.
(§9) Step 2.2 Further dilute said compound dilution by 3-fold in series, thus obtain 10 concentrations.
(§10) Step 2.3 Add 100 μl of 100% DMSO to two empty wells for no compound control and no enzyme control in the same 96-well plate. Mark the plate as source plate.
(§11) Step 2.4 Prepare an intermediate plate
(§12) Transfer 10 μl of each compound from the source plate to a new 96-well plate as the intermediate plate.
(§13) Add 90 μl of 1× kinase buffer to each well of the intermediate plate. Mix the compounds in the intermediate plate for 10 min on a shaker.
(§14) Transfer 5 μl of each well from the 96-well intermediate plate to a 384-well plate in duplicate. For example, A1 of the 96-well plate is transferred to A1 and A2 of the 384-well plate. A2 of the 96-well plate is transferred to A3 and A4 of the 384-well plate, and so on.
(§15) 4.1 Prepare a 2.5× kinase solution
(§16) Add kinase in 1× kinase base buffer, thus obtain the 2.5× kinase solution.
(§17) 4.2 Prepare a 2.5× peptide solution
(§18) 4.3 In each well of the assay plate obtained in step 3, there was 5 μL of the compound in 10% DMSO.
(§19) 4.4 Transfer the 2.5× enzyme solution to the assay plate.
(§20) 4.5 Incubate at room temperature for 10 min.
(§21) 4.6 Transfer the 2.5× peptide solution to the assay plate.
(§22) 4.7 Kinase reaction and stop
(§23) Incubate at 28° C. for 20 min.
(§24) Add 25 μl of stop buffer to stop reaction.
(§25) Conversion rate of the kinase was read via the Caliper.
(§26) 6.1 Copy conversion data from Caliper program.
(§27) 6.2 Convert conversion values to inhibition values with the following formula: Percent inhibition=(max−conversion)/(max−min)*100
(§28) where “max” stands for DMSO control; and “min” stands for low control.
(§29) 6.3 Fit the data in XLfit excel add-in version 4.3.1 and obtain IC50 values according to the following formula: Y=Bottom+(Top−Bottom)/[…].

In test [4] the target is ALK L1196M (Homo sapiens (Human), UniProt Q9UM73, L1196M). The test can be described thus: Inhibition of ALK L1196M kinase activity (Caliper mobility shift). It is filed as biochemical. How it is done: as §5, §6, §7, §8, §9, §10, §11, §12, §13, §14, §15, §16, §17, §18, §19, §20, §21, §22, §23, §24, §25, §26, §27, §28, §29

The structures appear in SMILES notation.

Experimental findings from US10695347B2, “Pyrimidine derivative and use thereof” (Hubei Bio-Pharmaceutical Industrial Technological Institute …, priority 2015, dated 2020) are described below.

Sequence of ALK (Q9UM73 19-1620): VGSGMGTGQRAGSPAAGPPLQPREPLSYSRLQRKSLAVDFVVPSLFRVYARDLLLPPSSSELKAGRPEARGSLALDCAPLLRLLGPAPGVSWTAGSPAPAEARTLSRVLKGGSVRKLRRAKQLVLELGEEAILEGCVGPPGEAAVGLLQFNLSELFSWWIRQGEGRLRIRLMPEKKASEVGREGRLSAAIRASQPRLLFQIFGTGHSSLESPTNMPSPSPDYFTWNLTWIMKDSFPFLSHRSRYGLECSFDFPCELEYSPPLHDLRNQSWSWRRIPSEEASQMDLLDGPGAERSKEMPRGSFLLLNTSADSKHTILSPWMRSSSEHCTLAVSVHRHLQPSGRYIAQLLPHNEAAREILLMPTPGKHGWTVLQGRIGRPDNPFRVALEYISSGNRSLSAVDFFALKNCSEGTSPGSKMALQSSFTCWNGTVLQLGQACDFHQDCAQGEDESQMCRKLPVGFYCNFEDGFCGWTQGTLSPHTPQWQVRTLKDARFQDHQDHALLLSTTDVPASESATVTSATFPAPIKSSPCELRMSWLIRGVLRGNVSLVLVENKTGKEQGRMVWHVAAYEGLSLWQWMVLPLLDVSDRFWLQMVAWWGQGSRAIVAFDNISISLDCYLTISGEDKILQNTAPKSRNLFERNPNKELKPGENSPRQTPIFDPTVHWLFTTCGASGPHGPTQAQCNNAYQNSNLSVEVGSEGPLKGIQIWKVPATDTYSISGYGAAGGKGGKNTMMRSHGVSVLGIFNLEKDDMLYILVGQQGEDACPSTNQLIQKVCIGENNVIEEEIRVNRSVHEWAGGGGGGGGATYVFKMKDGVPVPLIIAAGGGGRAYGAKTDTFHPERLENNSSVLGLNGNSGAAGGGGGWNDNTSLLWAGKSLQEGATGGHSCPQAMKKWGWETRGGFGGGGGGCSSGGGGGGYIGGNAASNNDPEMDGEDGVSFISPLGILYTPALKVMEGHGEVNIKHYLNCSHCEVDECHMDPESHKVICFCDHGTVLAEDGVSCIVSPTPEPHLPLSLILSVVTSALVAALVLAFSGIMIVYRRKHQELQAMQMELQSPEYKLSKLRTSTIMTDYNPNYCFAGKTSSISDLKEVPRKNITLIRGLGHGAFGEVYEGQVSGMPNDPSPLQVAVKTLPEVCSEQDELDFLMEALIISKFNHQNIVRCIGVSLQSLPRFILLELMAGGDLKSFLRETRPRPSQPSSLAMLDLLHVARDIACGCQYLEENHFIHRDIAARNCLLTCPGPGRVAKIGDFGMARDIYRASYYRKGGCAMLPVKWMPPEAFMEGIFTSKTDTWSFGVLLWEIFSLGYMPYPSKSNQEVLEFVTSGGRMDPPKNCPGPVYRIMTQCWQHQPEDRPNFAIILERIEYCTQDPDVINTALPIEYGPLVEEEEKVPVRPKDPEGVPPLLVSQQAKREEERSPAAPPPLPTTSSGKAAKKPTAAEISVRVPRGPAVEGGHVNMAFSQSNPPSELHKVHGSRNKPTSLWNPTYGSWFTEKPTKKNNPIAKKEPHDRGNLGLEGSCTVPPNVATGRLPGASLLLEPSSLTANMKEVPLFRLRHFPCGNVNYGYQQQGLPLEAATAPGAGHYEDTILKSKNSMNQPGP
Sequence of ALK L1196M (Q9UM73 19-1620 L1196M): as the sequence (Q9UM73 19-1620) above, with L1178M counted along it

For orientation: IC50 means the midpoint of a concentration-inhibition curve. As to `COc1cc(N2CCC(N(C)C)CC2)ccc1Nc1ncc(Cl)c(Nc2ccsc2S(=O)(=O)C(C)C)n1` [Compound I-3], the IC50 was under 50 nM in test [1] and under 20 nM in test [2].
With `COc1cc(C2=CCN(C)CC2)ccc1Nc1ncc(Cl)c(Nc2cccnc2S(=O)(=O)C(C)C)n1` [Compound I-84, 5-chloro-N^4-(2-(isopropylsulfonyl)pyridin-3-yl)-N^2-(2-methoxy-4-(1-methyl-1,2,3,6-tetrahydropyridin-4-yl)phenyl) pyrimidine-2,4-diamine], the IC50 in test [1] is under 50 nM; in test [3], 1 to 10 nM; in test [4], 1 to 10 nM; in test [2], 20 to 100 nM.
As to `COc1cc(N2CCC(N3CC(C)OC(C)C3)CC2)ccc1Nc1ncc(Cl)c(Nc2cccnc2S(=O)(=O)C(C)C)n1` (stereo not shown) [Compound I-12], the IC50 was 50 to 100 nM in test [1], 1 to 10 nM in test [3], 1 to 10 nM in test [4] and under 20 nM in test [2].
In the case of `COc1cc(N2CCN(C)CC2)ccc1Nc1ncc(Cl)c(Nc2ccccc2S(=O)(=O)C(C)C)n1` [Compound I-13], the IC50 in test [1] is under 50 nM; in test [2], under 20 nM.
In the case of `COc1cc(C2=CCN(C(C)C)CC2)c(C)cc1Nc1ncc(Cl)c(Nc2cccnc2S(=O)(=O)C(C)C)n1` [Compound I-80, 5-chloro-N^2-(4-(1-isopropyl-1,2,3,6-tetrahydropyridin-4-yl)-2-methoxy-5-methylphenyl)-N^4-(2-(isopropylsulfonyl)pyridin-3-yl) pyrimidine-2,4-diamine], the IC50 in test [1] was under 50 nM; in test [3] it was 1 to 10 nM; in test [4], 1 to 10 nM; in test [2], 20 to 100 nM.
With `COc1cc(CN2CCC(N(C)C)CC2)ccc1Nc1ncc(Cl)c(Nc2ccccc2S(=O)(=O)C(C)C)n1` [Compound I-109], the IC50 in test [1] was 50 to 100 nM; in test [3], 1 to 10 nM; in test [4] it was 1 to 10 nM; in test [2], under 20 nM.
As to `COc1cc(N2CCC(N3CCN(C)CC3)CC2)ccc1Nc1ncc(Cl)c(Nc2cccnc2S(=O)(=O)C(C)C)n1` [Compound I-10], the IC50 is under 50 nM in test [1], 1 to 10 nM in test [3], 1 to 10 nM in test [4] and under 20 nM in test [2].
For `CC(C)S(=O)(=O)c1ncccc1Nc1nc(Nc2ccc(N3CCC(N(C)C)CC3)cc2OC(F)F)ncc1Cl` [Compound I-100, 5-chloro-N^2-(2-(difluoromethoxy)-4-(4-(dimethylamino)piperidin-1-yl)phenyl)-N^4-(2-(isopropylsulfonyl)pyridin-3-yl) pyrimidine-2,4-diamine], the IC50 in test [1] is under 50 nM; in test [3], 1 to 10 nM; in test [4], 1 to 10 nM; in test [2], 20 to 100 nM.
Consider `COc1cc(N2CCN(C(C)C)CC2)c(C)cc1Nc1ncc(Cl)c(Nc2cccnc2S(=O)(=O)C(C)C)n1` [Compound I-88], for which the IC50 in test [1] is 50 to 100 nM; in test [3], 1 to 10 nM; in test [4], 1 to 10 nM; in test [2], 20 to 100 nM.
For the compound `COc1cc(C2=CCNCC2)c(C)cc1Nc1ncc(Cl)c(Nc2cccnc2S(=O)(=O)C(C)C)n1` [Compound I-89], the half-inhibitory concentration (IC50) in test [1] was 50 to 100 nM; in test [3] it was 1 to 10 nM; in test [2] it was under 20 nM.
Consider `COc1cc(N2CCC(N3CCOCC3)CC2)ccc1Nc1ncc(Cl)c(Nc2ccsc2S(=O)(=O)C(C)C)n1` [Compound I-8], for which the IC50 in test [1] is under 50 nM; in test [2], under 20 nM.
Consider `COc1cc(CN2CCC(N(C)C)CC2)ccc1Nc1ncc(OC(F)F)c(Nc2ccccc2S(=O)(=O)C(C)C)n1` [Compound I-103], for which the half-maximal inhibitory concentration (IC50) in test [1] is 50 to 100 nM; in test [3], 1 to 10 nM; in test [2], under 20 nM.
For `COc1cc(N2CCC(N(C)C)CC2)ccc1Nc1ncc(Cl)c(Nc2cccnc2S(=O)(=O)C(C)C)n1` [Compound I-6], the IC50 is under 50 nM in test [1], 1 to 10 nM in test [3], 1 to 10 nM in test [4] and under 20 nM in test [2].
For the compound `CC(C)S(=O)(=O)c1ccccc1Nc1nc(Nc2ccc(N3CCC(N(C)C)CC3)cc2OC(F)F)ncc1OC(F)F` [Compound I-114], the IC50 in test [1] is under 50 nM; in test [2], under 20 nM.
Take `COc1cc(N2CCC(O)CC2)ccc1Nc1ncc(Cl)c(Nc2ccsc2S(=O)(=O)C(C)C)n1` [Compound I-16]: the IC50 was under 50 nM in test [1] and under 20 nM in test [2].
With `CC(C)S(=O)(=O)c1ccccc1Nc1nc(Nc2ccc(N3CCC(N(C)C)CC3)cc2OC(F)F)ncc1Cl` [Compound I-95], the IC50 in test [1] is under 50 nM; in test [2], 20 to 100 nM.
The like results for `COc1cc(N2CCN(C)CC2)ccc1Nc1ncc(Cl)c(Nc2ccsc2S(=O)(=O)C(C)C)n1` [Compound I-2] were, in that order, under 50 nM and under 20 nM.
Take `COc1cc(N2CCOCC2)ccc1Nc1ncc(Cl)c(Nc2ccsc2S(=O)(=O)C(C)C)n1` [Compound I-1]: the IC50 in test [1] was under 50 nM; in test [2], under 20 nM.
On to `COc1cc(CN2CCC(N(C)C)CC2)ccc1Nc1ncc(Cl)c(Nc2cccnc2S(=O)(=O)C(C)C)n1` [Compound I-107], for which the IC50 in test [1] is 50 to 100 nM; in test [4] it was 1 to 10 nM; in test [2] it was 20 to 100 nM.
Regarding `COc1cc(N2CCC(N(C)C)CC2)ccc1Nc1ncc(Cl)c(Nc2ccccc2S(=O)(=O)C(C)C)n1` [Compound I-14], the 50% inhibitory concentration (IC50) in test [1] was under 50 nM; in test [2], under 20 nM.
Take `COc1cc(N2CCC(N3CCC(N(C)C)CC3)CC2)ccc1Nc1ncc(Cl)c(Nc2ccccc2S(=O)(=O)C(C)C)n1` [Compound I-15]: the concentration for half-maximal inhibition (IC50) in test [1] was 50 to 100 nM; in test [2] it was under 20 nM.
